Measured values: patent US20120021434A1, “METHOD FOR TREATING B CELL REGULATED AUTOIMMUNE DISORDERS” (Synta Pharmaceuticals Corp., priority 2005, published 2012)

Experiments:
ICSBP = ICSBP expression (Western blot); type: cell-based; details: of the transcription factors analyzed
Procedure: (§1) The 10% SDS Polyacrylamide gels (Inveitrogen) were transferred to Pure Nitrocellulose membrane (BioRed, Hercules, Calif.). The membranes were blocked with 5% milk in TBST buffer and incubated with anti-c-Rel, anti-p65, anti-p50, anti-ICSBP or anti-PU-1 antibody (all the antibodies were purchased from Santa Cruz) at a dilution of 1:500 for 1 h at room temperature or overnight at 4C. The membranes were washed and incubated with Horseradish Peroxidase-conjugated anti-rabbit IgG or anti-mouse IgG (Amersham, England) at a dilution of 1:2000 at room temperature for 1 h.
Of the transcription factors that have been analyzed, two factors, ICSBP and c-Rel, seem to be affected by Compound 4/Compound 50 treatment. ICSBP binds indirectly to the Ets-2 site. The primary NF-κB trans-activator for IL-12 is the c-Rel/p50 heterodimer. Other dimers (p65/p50 and p50/p50) either lack activity or have inhibitory functions. Thus, c-Rel plays a role in IL-12 transcription as a result of both activation through NF-κB and its interaction with ICSBP. […] The membranes were blocked with 5% milk in TBST buffer and then incubated with anti-c-Rel, anti-p65, anti-p50, anti-ICSBP or anti-PU-1 antibody (all the antibodies were purchased from Santa Cruz) at a dilution of 1:500 for 1 h at room temperature or overnight at 4° C. The membranes were washed and incubated with Horseradish Peroxidase-conjugated anti-rabbit IgG or anti-mouse IgG (Amersham, England) at a dilution of 1:2000 at room temperature for 1 h.
ICSBP, whose expression was reduced by Compound 50, was over-expressed using co-transfection with the IL-12 promoter-Luc report system. The over-expression construct of ICSBP was generated by PCR from cDNA of human PBMC using primers as follow: ICSBP-exp-F: 5′-[…]-3′ (SEQ ID NO:1) and ICSBP-exp-R: 5′-[…]-3′ (SEQ ID NO:2), the resulting PCR products was ligated to pCI vector (Promega).

c-Rel = target: T1, c-Rel (Homo sapiens, UniProt Q04864); test: Western blot of THP-1 nuclear extracts: c-Rel; type: cell-based; details: of the transcription factors analyzed
T1 construct: a western blot assay of THP1 nuclear c-Rel, p50 and p65 proteins was carried out; endogenous in cells; host or cells: THP-1; Jurkat
T1 sequence (Q04864 1-619): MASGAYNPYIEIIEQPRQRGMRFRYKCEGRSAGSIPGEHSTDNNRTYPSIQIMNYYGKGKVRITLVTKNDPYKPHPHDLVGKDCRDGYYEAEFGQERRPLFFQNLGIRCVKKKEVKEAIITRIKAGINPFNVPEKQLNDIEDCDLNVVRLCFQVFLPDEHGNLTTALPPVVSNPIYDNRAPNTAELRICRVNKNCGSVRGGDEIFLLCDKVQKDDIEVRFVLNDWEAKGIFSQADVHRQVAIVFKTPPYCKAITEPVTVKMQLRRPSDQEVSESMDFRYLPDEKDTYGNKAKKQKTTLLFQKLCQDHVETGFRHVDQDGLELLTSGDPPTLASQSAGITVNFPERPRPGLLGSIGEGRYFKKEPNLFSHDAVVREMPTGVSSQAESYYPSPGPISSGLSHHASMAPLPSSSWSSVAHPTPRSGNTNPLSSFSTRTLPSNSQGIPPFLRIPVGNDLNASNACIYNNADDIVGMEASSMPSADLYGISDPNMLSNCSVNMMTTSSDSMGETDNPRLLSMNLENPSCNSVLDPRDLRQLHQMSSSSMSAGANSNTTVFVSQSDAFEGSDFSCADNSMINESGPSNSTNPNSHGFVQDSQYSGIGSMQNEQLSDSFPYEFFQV
Procedure: The THP-1 cell, Jurkat cell and RAW264.7 cell line were obtained from American Type Culture Collection (Manassas, Va.). The THP-1 Jurkat cells were cultured in RPMI 1640 (ATCC, Manassas, Va.), supplemented with 10% FCS (ATCC, Manassas, Va.), and 1% penicillin/Streptomycin (Gibco-BRL, New York, N.Y.). The RAW264.7 cells were cultured in DMEM (ATCC, Manassas, Va.) supplemented with 10% FCS (ATCC, Manassas, Va.), and 1% penicillin/Streptomycin (Gibco-BRL, New York, N.Y.). The cells were stimulated with human or murine recombinant IFNγ (100 ng/ml) for 10 h followed by LPS (1 μg/ml) or SAC (0.025%) CpG ([…]) in the presence or absence of Compound 50 at different concentrations for an additional incubation.
THP-1 cells were suspended in 20 volumes of buffer A containing 10 mM KCl, 10 mM HEPES (pH 7.9), 1 mM MgCl2, 1 mM dithiothreitol (DTT), 0.1% Nonidet p40 (NP-40), and 0.5 mM phenylmethylsulfonyl fluoride (PMSF) and homogenized and centrifuged at 10,000 rpm at 4C afor 5 min. Nuclear pellets were then suspended in buffer C containing 400 mM NaCl, 20 mM HEPES 9, pH 7.9), 15 mM MgCl2, 0.2 mM EDTA, 1 mM DTT, 25% glycerol, 1 mM PMSF, and 10 ug of leupeptin, 20 ug of pepstatin, and 10 ug/ml antipain, incubated for 30 min at 4C, and centrifuged at 14,000 rpm for 20 min. The supernatants were dialyzed against buffer D containing 100 mM NaCl, 20 mM HEPES (pH 7.9), 20% glycerol, 1 mM PMSF, and 1 mM DTT.
as §1, with “The membranes were washed and incubated with Horseradish Peroxidase-conjugated anti-rabbit IgG or anti-mouse IgG (Amersham, England) at a dilution of 1:2000 at room temperature for 1 h.” left out
Of the transcription factors that have been analyzed, two factors, ICSBP and c-Rel, seem to be affected by Compound 4/Compound 50 treatment. […]

transcription factor c-Rel affected by treatment (c-Rel): affected
SMILES: C(=N\Nc1nc(OCCc2ccccn2)nc(N2CCOCC2)n1)/c1c[nH]c2ccccc12 [Compound 4]
transcription factor ICSBP affected by treatment (ICSBP): affected
